The source of these data is PubChem BioAssay (NCI).

Among the test systems are CAKI-1 renal; SK-OV-3 ovarian; UO-31 renal; HOP-62 NSCLC; MOLT-4 leukemia; OVCAR-8 ovarian; PC-3 prostate; SN12C renal; SF-268 CNS; SK-MEL-5 melanoma; SK-MEL-2 melanoma; COLO 205 colon; HL-60(TB) leukemia; M14 melanoma; RPMI-8226 leukemia; HCC-2998 colon; CCRF-CEM leukemia; DU-145 prostate; OVCAR-3 ovarian; A498 renal.
What all share (experiment): growth of human tumour cells (NCI), 48 h

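The compound was tested at five concentrations on cells cultured in 96-well plates, with a 48-hour exposure period. TGI denotes the concentration required for complete inhibition of growth.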

Turning to `COc1ccc2c(c1)N=C1CSC(c3c(Cl)cccc3[N+](=O)[O-])N1C2` (stereo not given), the TGI with CAKI-1 renal, in the assay on SK-OV-3 ovarian, in the assay on UO-31 renal, in the assay on HOP-62 NSCLC, in the assay with MOLT-4 leukemia and in the assay on OVCAR-8 ovarian was more than 100 µM each time. Further, the TGI in the assay with PC-3 prostate is more than 100 µM; in the assay with SN12C renal, more than 100 µM; in the assay on SF-268 CNS, more than 100 µM; with SK-MEL-5 melanoma it was 39.5 µM; with SK-MEL-2 melanoma, more than 100 µM; in the assay with COLO 205 colon, more than 100 µM. Also, the TGI in the assay on HL-60(TB) leukemia was 79.3 µM; in the assay on M14 melanoma, more than 100 µM; with RPMI-8226 leukemia, 84.6 µM; in the assay on HCC-2998 colon, 47.7 µM.

Regarding `C/C(=N/NC(=S)NCCc1ccccn1)c1cnccn1`, the TGI in the assay on CCRF-CEM leukemia was 68.9 µM; with CAKI-1 renal, more than 100 µM; with DU-145 prostate it was more than 100 µM; with SK-OV-3 ovarian it was 70.5 µM; in the assay on OVCAR-3 ovarian, more than 100 µM; in the assay with UO-31 renal, 90.2 µM. Further, the TGI with HOP-62 NSCLC was more than 100 µM; in the assay with MOLT-4 leukemia, 41.4 µM; in the assay on PC-3 prostate, more than 100 µM; with SN12C renal, 74.7 µM; with SF-268 CNS, more than 100 µM; with SK-MEL-5 melanoma it was more than 100 µM. The TGI is more than 100 µM in the assay with SK-MEL-2 melanoma; more than 100 µM with COLO 205 colon; more than 100 µM with M14 melanoma; 80 µM with RPMI-8226 leukemia; more than 100 µM in the assay with HCC-2998 colon.

Take `O=C(NCC(C(=O)OCc1ccccc1)C(=O)OCc1ccccc1)OCc1ccccc1`: the TGI with CAKI-1 renal, in the assay on DU-145 prostate, in the assay with SK-OV-3 ovarian, with OVCAR-3 ovarian, in the assay with UO-31 renal and in the assay on HOP-62 NSCLC was more than 100 µM each time. Moreover, the TGI in the assay on MOLT-4 leukemia, with OVCAR-8 ovarian, in the assay with PC-3 prostate, with SN12C renal, in the assay with SF-268 CNS and in the assay on SK-MEL-5 melanoma was more than 100 µM throughout. The TGI in the assay on SK-MEL-2 melanoma, with COLO 205 colon, in the assay on M14 melanoma, in the assay with RPMI-8226 leukemia and with HCC-2998 colon was more than 100 µM each time.

Regarding `CC(C)(C)c1cc(C(=O)/C=C/c2ccc3c(c2)CCO3)cc(C(C)(C)C)c1O`, the TGI is more than 31.5 µM with CCRF-CEM leukemia; 22.1 µM with CAKI-1 renal; more than 80.3 µM in the assay on SK-OV-3 ovarian; more than 100 µM in the assay with OVCAR-3 ovarian; more than 54 µM in the assay on UO-31 renal; more than 93.7 µM in the assay on HOP-62 NSCLC. Moreover, the TGI was more than 31.3 µM with MOLT-4 leukemia; more than 100 µM in the assay on OVCAR-8 ovarian; 4.8 µM in the assay on PC-3 prostate; more than 33.9 µM in the assay with SN12C renal; 24.5 µM in the assay with SF-268 CNS; 6.65 µM in the assay with SK-MEL-5 melanoma. Moreover, the TGI in the assay with SK-MEL-2 melanoma is 13.1 µM; in the assay with COLO 205 colon it was 1.58 µM; in the assay with HL-60(TB) leukemia, 5.53 µM; in the assay with A498 renal, 24.4 µM; in the assay with M14 melanoma, 5.25 µM; with RPMI-8226 leukemia, 4.45 µM. The TGI in the assay on HCC-2998 colon amounted to 3.8 µM.

As for `CN(C)c1ccc(N=Nc2cccc3ncccc23)cc1`, the TGI in the assay with CCRF-CEM leukemia, in the assay on CAKI-1 renal, in the assay with DU-145 prostate, in the assay on SK-OV-3 ovarian, with OVCAR-3 ovarian and in the assay on UO-31 renal was more than 100 µM in each case. The TGI with HOP-62 NSCLC, with MOLT-4 leukemia, with OVCAR-8 ovarian, in the assay on PC-3 prostate, in the assay on SN12C renal and in the assay with SF-268 CNS was more than 100 µM in each case. Besides, the TGI with SK-MEL-5 melanoma was 61.2 µM; with SK-MEL-2 melanoma, more than 100 µM; with COLO 205 colon it was more than 100 µM; in the assay with HL-60(TB) leukemia, 35.9 µM; with M14 melanoma, more than 100 µM; in the assay on RPMI-8226 leukemia, more than 68.1 µM. In the assay on HCC-2998 colon, the TGI was more than 100 µM.

As for `CCN(CC)CCC(=O)c1ccc(Oc2ccccc2)cc1`, the TGI in the assay on CCRF-CEM leukemia was 51.3 µM; with CAKI-1 renal, 30.7 µM; in the assay on DU-145 prostate, 71.2 µM; in the assay on SK-OV-3 ovarian it was more than 100 µM; in the assay on OVCAR-3 ovarian it was 45.3 µM; with HOP-62 NSCLC, 77.4 µM. In addition, the TGI is 48.4 µM with MOLT-4 leukemia; more than 100 µM with OVCAR-8 ovarian; more than 100 µM with PC-3 prostate; 31.4 µM in the assay on SN12C renal; 55.9 µM with SF-268 CNS; more than 100 µM with SK-MEL-2 melanoma. The TGI with COLO 205 colon was 32.1 µM; in the assay on M14 melanoma, more than 100 µM; in the assay with RPMI-8226 leukemia, 39.2 µM; in the assay with HCC-2998 colon, 35.6 µM.

As for `Nc1ccccc1OCc1cc(=O)c(OCc2ccccc2)co1`, the TGI in the assay with CCRF-CEM leukemia was more than 100 µM; in the assay with CAKI-1 renal, more than 100 µM; in the assay on DU-145 prostate, more than 100 µM; in the assay with SK-OV-3 ovarian, 83.7 µM; in the assay with OVCAR-3 ovarian, more than 100 µM; with HOP-62 NSCLC it was more than 100 µM. The TGI in the assay on MOLT-4 leukemia was more than 100 µM; with OVCAR-8 ovarian it was more than 100 µM; with PC-3 prostate, more than 100 µM; in the assay on SN12C renal, 0.823 µM; in the assay with SF-268 CNS it was more than 100 µM; in the assay on SK-MEL-5 melanoma it was more than 100 µM. The TGI in the assay with COLO 205 colon was 44.9 µM; in the assay with HL-60(TB) leukemia it was more than 100 µM; in the assay with M14 melanoma, more than 100 µM; in the assay on RPMI-8226 leukemia, more than 100 µM.

Regarding `CC1SC(=O)SC1C` (stereo not given), the TGI in the assay with CCRF-CEM leukemia, in the assay on SK-OV-3 ovarian, in the assay on UO-31 renal, in the assay with HOP-62 NSCLC, in the assay with MOLT-4 leukemia and with OVCAR-8 ovarian was more than 100 µM throughout. For the same compound, the TGI in the assay with PC-3 prostate, in the assay on SN12C renal, in the assay on SF-268 CNS, in the assay with SK-MEL-5 melanoma, in the assay on COLO 205 colon and in the assay on HL-60(TB) leukemia was more than 100 µM in each case. For the same compound, the TGI in the assay on M14 melanoma, in the assay on RPMI-8226 leukemia and in the assay with HCC-2998 colon was more than 100 µM in each case.
